The results in this text go back to paper PMC4743981, “Immunomodulatory and Anti-Inflammatory Activities of Chicken Cathelicidin-2 Derived Peptides” (PLoS ONE, 2016).

Where two headings read alike, the source gives them in different places. Ends that are not written are not given here.

Test [1] concerns Avian pathogenic Escherichia coli O78. Format: cell-based. The settings on record: Avian pathogenic O78, 3 h. The procedure: Avian pathogenic Escherichia coli O78 (field isolate, Zoetis, Kalamazoo, MI) was cultured in Mueller-Hinton broth at 37°C. Overnight grown cultures were diluted to a density of 2×10^6 CFU/ml in Mueller-Hinton broth (non cation-adjusted, Oxoid Ltd., Hampshire, UK) and mixed in a 96 wells polypropylene microwell plate at a 1:1 ratio with peptide (final concentration: 1.25 to 40 μM). After 3 h incubation samples were serially diluted in medium, plated on trypton soy agar (Oxoid Ltd., Hampshire, UK) media and counted after 24 h incubation at 37°C.

Test [2] has as its target S. minnesota LPS. Nature of the test: LPS binding affinity, dansyl-polymyxin B displacement. Also on record: species or system Salmonella minnesota. The settings on record: concentration of peptide needed to displace 50% of Dansyl-labeled polymyxin from S. minnesota LPS micelles, unsubstituted (Phe) peptide, read-out: I50 (Phe). On the procedure:
Dansyl-polymyxin B was prepared and quantitated as described by Schindler and Teuber. Subsequently, the capacity of peptides to displace dansyl-labeled polymyxin B complexed to S. minnesota LPS was determined according to Moore et al..

The test system of test [3] is CXCLi2/IL-8. Put plainly: Peptide-induced CXCLi2 transcription in HD11 cells (real time PCR). The settings on record: 1 to 20 μM peptide, 4 h or 24 h, real time QPCR. Format: cell-based, chicken. The procedure:
(§1) HD11 cells were a kind gift of dr. Jos van Putten (department of Infectious diseases and Immunology, Utrecht University, The Netherlands). HD11 cells were seeded in 96 wells tissue culture treated plates (1×10^5 cell/mL) and incubated for 18 h at 37°C (5% CO2) before treatment. For peptide-induced effects cells were treated with RPMI-1640 medium containing 20 μM peptide during 4 h or 24 h. In LPS neutralization experiments, final concentrations of 50–100 ng/ml LPS were pre-incubated with or without 20 μM peptide for 30 min at 37°C (5% CO2), applied to the cells and incubated for 4 h. To examine neutralization of LPS-primed cells HD11 cells were exposed for 30 min to 100–1000 ng/ml S. minnesota LPS, washed once and incubated during 4 h in the absence or presence of 20 μM Peptide. Supernatants were collected for the determination of nitric oxide production (24 h incubations only). […] RNA quantity and purity were tested using a Nanodrop ND-1000 spectrophometer (Nanodrop Technologies, Wilmington, DE). Cytotoxicity of peptides was determined using the cell viability reagent WST-1 (Roche) as described previously, and by measuring LDH release after 24 h exposure. LDH activities in supernatant cell fractions were measured using the Cytoxicity Detection Kit PLUS (Roche) according the manufacturers recommendations and expressed as the % of released LDH relative to the total LDH activity. […]
On the technique in general: In qPCR the cycle at which signal appears reflects the starting amount.

For test [4], the system named is NO production by HD11 cells. Put plainly: Peptide-induced nitric oxide production by HD11 cells (Griess). Format: cell-based, chicken. As to conditions: 24 h exposure to 20 μM peptide without LPS, data not shown. The procedure:
HD11 cells were a kind gift of dr. Jos van Putten (department of Infectious diseases and Immunology, Utrecht University, The Netherlands). HD11 cells were seeded in 96 wells tissue culture treated plates (1×10^5 cell/mL) and incubated for 18 h at 37°C (5% CO2) before treatment. For peptide-induced effects cells were treated with RPMI-1640 medium containing 20 μM peptide during 4 h or 24 h. In LPS neutralization experiments, final concentrations of 50–100 ng/ml LPS were pre-incubated with or without 20 μM peptide for 30 min at 37°C (5% CO2), applied to the cells and incubated for 4 h. […] RNA quantity and purity were tested using a Nanodrop ND-1000 spectrophometer (Nanodrop Technologies, Wilmington, DE). Cytotoxicity of peptides was determined using the cell viability reagent WST-1 (Roche) as described previously, and by measuring LDH release after 24 h exposure. LDH activities in supernatant cell fractions were measured using the Cytoxicity Detection Kit PLUS (Roche) according the manufacturers recommendations and expressed as the % of released LDH relative to the total LDH activity.
Nitric oxide production was assessed as the accumulation of nitrite (NO2^−) in cell supernatants during a 24 h incubation period. Nitrite concentrations were determined using a colorimetric reaction with the Griess reagent using (from 1 to 50 μM) sodium nitrite dissolved in water as standards. […]
A general note: The Griess reaction detects nitrite, a stable product of nitric oxide.

Test [5] has as its system MCP-3. Nature of the test: Peptide-induced MCP-3 transcription in HD11 cells (real time PCR). It is filed as cell-based, chicken. The settings on record: 1 to 20 μM peptide, 4 h or 24 h, real time QPCR. On the procedure:
as §1

Test [6] has as its system IL-1β transcription in LPS-primed HD11 cells. Put plainly: Neutralization of IL-1β transcription in LPS-primed HD11 cells. The settings on record: HD11 cells primed 30 min with S. minnesota LPS (100–1000 ng/ml), washed once, 4 h with 20 μM peptide; real time QPCR. It is filed as cell-based, chicken. The procedure: as §1

Take RWGRWLRKIRRWRPKVTITIQ-NH2 [C(1–21)W3]: in test [1], the MIC (as a rule, the lowest concentration that inhibits growth of the organism) amounted to 13.3 ± 5.8 µM.
Still for that read-out and setting: next, RRWRPKVTITIQ-NH2 [C(10–21)W]: 11.7 ± 7.6 µM.
On the same count and under the same terms, next, RKIRRYRPKVTITIQ-NH2 [C(7–21)Y]: 11.7 ± 7.6 µM.
RFGRFLRKIRRFRPKVTITIQGSARF-NH2 [CATH-2] yielded an MIC in test [1] of 5.0 ± 0.0 µM.
Regarding RKIRRFRPKVTITIQ-NH2 [C(7–21)], in test [1], the MIC amounted to 8.3 ± 2.9 µM.
For Polymyxin B, the IC50 in test [2] (listed as polymyxin B) was 4.19 µM; in test [2] it was 3.46 ± 0.17 µM.
As to RFGRFLRKIRRFRPK [C(1–15)], in test [1], the MIC came to 16.7 ± 5.8 µM.
RFLRKIRRFRPKVTITIQ-NH2 [C(4–21)] registered a minimal inhibitory concentration (MIC) in test [1] of 6.7 ± 2.9 µM.
KIRRFRPKVTITIQ-NH2 [C(8–21)] came in with an MIC in test [1] of 11.7 ± 7.6 µM. In other words, the double-digit micromolar range.
Take RRFRPKVTITIQ-NH2 [C(10–21)]: the MIC in test [1] stood at 6.7 ± 2.9 µM.
Same read-out and setting: next, RFGRFLRKIRRFRPKVTITIQ-NH2 [C(1–21)]: 13.3 ± 5.8 µM; RWLRKIRRWRPKVTITIQ-NH2 [C(4–21)W2]: 8.3 ± 2.9 µM; RFRPKVTITIQ-NH2 [C(11–21)]: 8.3 ± 2.9 µM.
In test [1], RYLRKIRRYRPKVTITIQ-NH2 [C(4–21)Y2] registered an MIC of 10.0 ± 0.0 µM.
Turning to FLRKIRRFRPKVTITIQ-NH2 [C(5–21)], the MIC in test [1] is 8.3 ± 5.8 µM.
With IRRFRPKVTITIQ-NH2 [C(9–21)], the MIC in test [1] turned out to be 8.3 ± 2.9 µM.
The same measure, in the same setting: next, RRYRPKVTITIQ-NH2 [C(10–21)Y]: 16.7 ± 5.8 µM.
Take `CC[C@H](C)[C@H](NC(=O)[C@H](CCCCN)NC(=O)[C@H](CCC(=O)O)NC(=O)[C@H](CCCCN)NC(=O)[C@H](CO)NC(=O)[C@H](CCCCN)NC(=O)[C@H](CCCNC(=N)N)NC(=O)[C@H](Cc1ccccc1)NC(=O)[C@H](Cc1ccccc1)NC(=O)[C@H](CC(=O)O)NC(=O)CNC(=O)[C@H](CC(C)C)NC(=O)[C@@H](N)CC(C)C)C(=O)NCC(=O)N[C@@H](CCCCN)C(=O)N[C@@H](CCC(=O)O)C(=O)N[C@@H](Cc1ccccc1)C(=O)N[C@@H](CCCCN)C(=O)N[C@@H](CCCNC(=N)N)C(=O)N[C@H](C(=O)N[C@H](C(=O)N[C@@H](CCC(N)=O)C(=O)N[C@@H](CCCNC(=N)N)C(=O)N[C@H](C(=O)N[C@@H](CCCCN)C(=O)N[C@@H](CC(=O)O)C(=O)N[C@@H](Cc1ccccc1)C(=O)N[C@@H](CC(C)C)C(=O)N[C@@H](CCCNC(=N)N)C(=O)N[C@@H](CC(N)=O)C(=O)N[C@@H](CC(C)C)C(=O)N[C@H](C(=O)N1CCC[C@H]1C(=O)N[C@@H](CCCNC(=N)N)C(=O)N[C@H](C(=O)N[C@@H](CCC(=O)O)C(=O)N[C@@H](CO)C(=O)O)[C@@H](C)O)C(C)C)[C@@H](C)CC)C(C)C)[C@@H](C)CC` [LL37]: the “induction of CXCLi2 transcription (in words)” value in test [3] is “inducing the transcription”. For the same compound, the “increase of NO levels” value in test [4] is reported as 2 fold. Also, the IC50 in test [2] turned out to be 0.28 ± 0.04 µM. Further, the “induction of MCP-3 transcription (in words)” value in test [5] is on record as “inducing the transcription”. Besides, the “inhibition of IL-1β transcription induced by LPS priming (in words)” value in test [6] is recorded as “strongly inhibited”.
In test [1], RKIRRWRPKVTITIQ-NH2 [C(7–21)W] came in with an MIC of 13.3 ± 5.8 µM.
Turning to RYGRYLRKIRRYRPKVTITIQ-NH2 [C(1–21)Y3], in test [1], the MIC was 10.0 ± 0.0 µM.
